Marks after values point to notes of the source that are not given here.
Key:
Septoria tritici = assay: Test F: wheat leaf blotch, preventive spray on wheat seedlings, visual disease rating; assay type: in vivo; settings: 100 = 100% disease control, 0 = no disease control relative to the controls
Text: (§1) A hyphen (-) indicates no test results.

Botrytis cinerea = assay: Test A: tomato Botrytis, preventive spray on tomato seedlings, visual disease rating; settings: tomato Botrytis; 100 = 100% disease control, 0 = no disease control relative to the controls
[1] = tested on: Blumeria graminis f. sp. tritici; assay: Test I: wheat powdery mildew, preventive spray on wheat seedlings, visual disease rating; settings: wheat powdery mildew; for Test I rating (disease control): 100 = 100% disease control, 0 = no disease control relative to the controls
Alternaria solani = assay: Test B: tomato early blight, preventive spray on tomato seedlings, visual disease rating; settings: tomato early blight; 100 = 100% disease control, 0 = no disease control relative to the controls
Protocol: General protocol for preparing test suspensions for Tests A-I: the test compounds were first dissolved in acetone in an amount equal to 3% of the final volume and then suspended at the desired concentration (in ppm) in acetone and purified water (50/50 mix by volume) containing 250 ppm of the surfactant Trem® 014 (polyhydric alcohol esters). The resulting test suspensions were then used in Tests A-I. Each test was conducted in triplicate, and the results were averaged. Spraying a 200 ppm test suspension to the point of run-off on the test plants was the equivalent of a rate of about 800 g/ha. Unless otherwise indicated, the rating values indicate a 200 ppm test suspension was used. (An asterisk “*” next to the rating value indicates a 40 ppm test suspension was used.)
The test suspension was sprayed to the point of run-off on tomato seedlings. The following day the seedlings were inoculated with a spore suspension of Alternaria solani (the causal agent of tomato early blight) and incubated in a saturated atmosphere at 27° C. for 48 h, and then moved to a growth chamber at 20° C. for 5 days, after which time visual disease ratings were made.

[2] = tested on: Puccinia recondita f. sp. tritici; assay: Test H: wheat leaf rust, preventive spray on wheat seedlings, visual disease rating; settings: wheat leaf rust, sprayed the day before inoculation; 100 = 100% disease control, 0 = no disease control
[3] = tested on: Puccinia recondita f. sp. tritici; assay: Test G: wheat leaf rust, spray after inoculation (curative) on wheat seedlings, visual disease rating; assay type: in vivo; settings: sprayed after inoculation, 100 = 100% disease control, 0 = no disease control
Text: as §1

Septoria nodorum = assay: Test E: Septoria glume blotch, preventive spray on wheat seedlings, visual disease rating; settings: Septoria glume blotch; 100 = 100% disease control, 0 = no disease control relative to the controls

SMILES	Test F rating (disease control) (Septoria tritici)	Test A rating (disease control) (Botrytis cinerea)	Test I rating (disease control) [1]	Test B rating (disease control) (Alternaria solani)	Test H rating (disease control) [2]	Test G rating (disease control) [3]	Test E rating (disease control) (Septoria nodorum)	Test I rating (disease control), value marked * ([1]; rating marked with asterisk (*), not explained in the text shown)
Cc1nn(C)c(Nc2ccc(F)cc2Cl)c1-c1ccc(F)cc1Br [compound 96]	100%	100%	100%	95%	100%	94%	0%	
Cc1nn(C)c(Nc2ccc(F)cc2F)c1-c1ccccc1Cl [compound 97]	100%	99%	100%	99%	96%	0%	0%	
Cc1nn(C)c(Nc2c(Cl)cc(F)cc2Cl)c1-c1ccc(F)cc1Br [compound 98]	99%	99%	96%	0%	99%	9%	0%	
COc1ccc(-c2c(C)nn(C)c2Oc2ccc(C#N)cc2Cl)c(Br)c1 [compound 99]	100%	99%	89%	0%	97%	0%	0%	
COc1ccc(-c2c(C)nn(C)c2Oc2ccc(C#N)cc2F)c(Br)c1 [compound 100]	100%	92%	95%	88%	99%	0%	100%	
COc1ccc(Nc2c(-c3ccc(F)cc3Cl)c(C)nn2C)c(Cl)c1 [compound 101]	100%	100%	100%	93%	100%	99%	0%	
COc1cc(Cl)c(Nc2c(-c3ccc(F)cc3Br)c(C)nn2C)c(Cl)c1 [compound 102]	98%	98%		0%	94%	0%	0%	95* %
COc1ccc(Nc2c(-c3ccc(F)cc3Br)c(C)nn2C)c(Cl)c1 [compound 103]	100%	99%	99%	83%	99%	63%	0%	
CCOc1ccc(Nc2c(-c3ccc(F)cc3Cl)c(C)nn2C)c(Cl)c1 [compound 104]	100%	100%	99%	0%	97%	0%	0%	

Source: patent publication US20170150719A1, “FUNGICIDAL PYRAZOLES AND THEIR MIXTURES” (E I DU PONT DE NEMOURS AND COMPANY, priority 2010, published 2017)
